Assay results reported in ChEMBL document CHEMBL5053541, “Andrographolide derivative as antagonist of vitamin D receptor to induce lipidation of microtubule associate protein 1 light chain 3 (LC3)” (Bioorg Med Chem, 2021).
Calls of active or inactive are those of the source. The rule behind the calls is not given here.

Experiments:
SH-SY5Y [1] = experiment: Neuroprotective activity against SNCA-induced neurotoxicity in human SH-SY5Y cells transfected with adenovirus expressing […] SNCA assessed as reduction in […] SNCA expression at 10 uM measured after 6 hrs by western blot analysis; format: functional, cell-based
N2a [2] = experiment: Effect on SNCA oligomerization in mouse N2a cells transfected with Syn-luc1 and Syn-luc2 plasmids assessed as reduction in SNCA self-oligomerization by measuring luciferase activity at 10 to 20 uM measured after 6 hrs by bioluminescent protein-fragment complementation assay; format: functional, cell-based; settings: dose 10-20 µM
N2a [3] = experiment: Induction of autophagy in MPP+-induced mouse N2a cells assessed as increase in LC3-II expression at 10 uM measured after 6 hrs by western blot analysis; format: functional, cell-based
N2a [4] = experiment: Induction of autophagy in MPP+-induced mouse N2a cells infected with pAde-LC3-EGFP- mCherry assessed as formation of mCherry foci by measuring increased in red fluorescence at 10 uM measured after 4 hrs by Hoechst staining based confocal microscope analysis; format: functional, cell-based
[5] = biological target: T1, Vitamin D3 receptor (Homo sapiens) (UniProt P11473); experiment: Antagonist activity at VDR in human HeLa cells assessed as increase in ratio of LC3-II to LC-I at 10 uM in presence or absence of calcitriol measured after 4 hrs by western blot analysis; format: cell-based; settings: filed as antagonist
T1 sequence (whole entry): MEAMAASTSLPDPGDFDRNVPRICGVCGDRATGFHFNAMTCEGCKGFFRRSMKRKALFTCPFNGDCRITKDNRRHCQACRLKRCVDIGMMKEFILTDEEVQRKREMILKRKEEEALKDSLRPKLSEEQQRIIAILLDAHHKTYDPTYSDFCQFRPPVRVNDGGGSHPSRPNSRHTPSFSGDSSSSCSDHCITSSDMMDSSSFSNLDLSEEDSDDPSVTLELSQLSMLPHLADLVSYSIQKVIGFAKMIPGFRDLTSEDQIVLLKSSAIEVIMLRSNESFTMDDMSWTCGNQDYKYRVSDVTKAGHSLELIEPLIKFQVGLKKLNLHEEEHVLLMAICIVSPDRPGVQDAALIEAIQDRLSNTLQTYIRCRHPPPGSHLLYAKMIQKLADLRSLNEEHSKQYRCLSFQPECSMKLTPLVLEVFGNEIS

HeLa = experiment: Cytotoxicity against human HeLa cells assessed as reduction in cell viability measured after 24 hrs by methylene blue staining based assay
[6] = biological target: T1, Vitamin D3 receptor (Homo sapiens); experiment: Antagonist activity against calcitriol-activated VDR signalling in human HeLa cells assessed as inhibition of VDR signalling incubated with calcitriol for 1 hr followed by compound addition and measured after 24 hrs by luciferase reporter gene assay; format: cell-based
[7] = biological target: Signal transducer and activator of transcription 3 (Homo sapiens) (UniProt P40763); experiment: Inhibition of IFN-gamma stimulated STAT3 signalling in human HeLa cells incubated for 1 hr withIFN-gamma followed by compound addition and measured after 24 hrs by luciferase reporter gene assay; format: cell-based
[8] = biological target: T1, Vitamin D3 receptor (Homo sapiens); experiment: Antagonist activity at VDR in human HeLa cells assessed as decrease in mTOR phosphorylation at Ser2448 residue at 10 uM in presence or absence of calcitriol measured after 4 hrs by western blot analysis; format: cell-based
[9] = biological target: T1, Vitamin D3 receptor (Homo sapiens); experiment: Antagonist activity at VDR in human HeLa cells assessed as reduction in CYP27B1 mRNA expression at 10 uM measured after 4 hrs by […]; format: cell-based; settings: filed as antagonist
N2a [10] = experiment: Upregulation of SREBP2 cleavage in MPP+-induced mouse N2a cells assessed as increase in active form of phospho-SREBP2 level measured up to 6 hrs by western blot analysis; format: functional
N2a [11] = experiment: Inhibition of lipid synthesis related gene expression in MPP+-induced mouse N2a cells assessed as reduction in Scap gene expression measured after 6 hrs by qRT-PCR analysis; format: functional
N2a [12] = experiment: Inhibition of lipid synthesis related gene expression in MPP+-induced mouse N2a cells assessed as reduction in Ldr gene expression measured after 6 hrs by qRT-PCR analysis; format: functional
N2a [13] = experiment: Inhibition of lipid synthesis related gene expression in MPP+-induced mouse N2a cells assessed as reduction in Fasn gene expression measured after 6 hrs by qRT-PCR analysis; format: functional
N2a [14] = experiment: Inhibition of lipid synthesis related gene expression in MPP+-induced mouse N2a cells assessed as reduction in Insig-1 gene expression measured after 6 hrs by qRT-PCR analysis; format: functional
N2a [15] = experiment: Induction of autophagy in MPP+-induced mouse N2a cells expressing myc-VDR plasmid assessed as LC3 lipidation at 10 uM measured after 6 hrs by western blot analysis; format: functional, cell-based
N2a [16] = experiment: Induction of autophagy in MPP+-induced mouse N2a cells transfected with Atg7 shRNA assessed as increase in LC3-II expression at 10 uM measured after 6 hrs by western blot analysis; format: functional, cell-based
N2a [17] = experiment: Upregulation of SREBP2 cleavage in MPP+-induced mouse N2a cells assessed as increase in active cleaved form of SREBP2 level measured up to 6 hrs by western blot analysis; format: functional
N2a [18] = experiment: Inhibition of lipid synthesis related gene expression in MPP+-induced mouse N2a cells assessed as reduction in ACACA gene expression measured after 6 hrs by qRT-PCR analysis; format: functional
SH-SY5Y [19] = experiment: Neuroprotective activity against A53T SNCA-induced cytotoxicity in human SH-SY5Y cells assessed as decrease in A53T SNCA induced LDH release at 10 uM by LDH assay; format: functional, cell-based
[20] = biological target: Nuclear factor NF-kappa-B complex (Homo sapiens) (UniProt Q00653+P19838+Q04206); experiment: Inhibition of TNF-alpha induced NF-kappaB signalling in human HeLa cells incubated with TNF-alpha for 1 hr followed by compound addition and measured after 24 hrs by luciferase reporter gene assay; format: cell-based
[21] = biological target: T1, Vitamin D3 receptor (Homo sapiens); experiment: Antagonist activity at VDR in human HeLa cells assessed as decrease in p62 expression at 10 uM in presence or absence of calcitriol measured after 4 hrs by western blot analysis; format: cell-based; settings: filed as antagonist
SH-SY5Y [22] = experiment: Neuroprotective activity against SNCA-induced neurotoxicity in human SH-SY5Y cells transfected with adenovirus expressing […] SNCA assessed as reduction in […] SNCA expression at 100 nM measured after 6 hrs by western blot analysis; format: functional, cell-based
N2a [23] = experiment: Effect on SNCA oligomerization in mouse N2a cells transfected with Syn-luc1 and Syn-luc2 plasmids assessed as reduction in SNCA self-oligomerization by measuring luciferase activity at 100 nM measured after 6 hrs by bioluminescent protein-fragment complementation assay; format: functional, cell-based
N2a [24] = experiment: Induction of autophagy in MPP+-induced mouse N2a cells infected with pAde-LC3-EGFP- mCherry assessed as formation of mCherry foci by measuring increased in red fluorescence at 500 nM measured after 4 hrs by Hoechst staining based confocal microscope analysis; format: functional, cell-based
[25] = biological target: T1, Vitamin D3 receptor (Homo sapiens); experiment: Antagonist activity at VDR in human HeLa cells assessed as increase in ratio of LC3-II to LC-I at 100 nM in presence or absence of calcitriol measured after 4 hrs by western blot analysis; format: cell-based
[26] = biological target: T1, Vitamin D3 receptor (Homo sapiens); experiment: Antagonist activity at VDR in human HeLa cells assessed as decrease in p62 expression at 100 nM in presence or absence of calcitriol measured after 4 hrs by western blot analysis; format: cell-based; settings: filed as antagonist
[27] = biological target: T1, Vitamin D3 receptor (Homo sapiens); experiment: Antagonist activity at VDR in human HeLa cells assessed as decrease in mTOR phosphorylation at Ser2448 residue at 100 nM in presence or absence of calcitriol measured after 4 hrs by western blot analysis; format: cell-based
SH-SY5Y [28] = experiment: Neuroprotective activity against SNCA-induced neurotoxicity in human SH-SY5Y cells transfected with adenovirus expressing […] SNCA assessed as inhibition of mTOR activation at 100 nM measured after 6 hrs by western blot analysis; format: functional, cell-based
SH-SY5Y [29] = experiment: Neuroprotective activity against SNCA-induced neurotoxicity in human SH-SY5Y cells transfected with adenovirus expressing […] SNCA assessed as inhibition of p62 expression at 100 nM measured after 6 hrs by western blot analysis; format: functional, cell-based
SH-SY5Y [30] = experiment: Neuroprotective activity against A53T SNCA-induced cytotoxicity in human SH-SY5Y cells assessed as decrease in A53T SNCA induced LDH release at 100 nM by LDH assay; format: functional, cell-based
[31] = biological target: T1, Vitamin D3 receptor (Homo sapiens); experiment: Antagonist activity at VDR in human HeLa cells assessed as reduction in CYP27B1 mRNA expression at 10 uM in presence of calcitriol measured after 4 hrs by […]; format: cell-based

Chain of Signal transducer and activator of transcription 3 (Homo sapiens) (P40763 whole entry): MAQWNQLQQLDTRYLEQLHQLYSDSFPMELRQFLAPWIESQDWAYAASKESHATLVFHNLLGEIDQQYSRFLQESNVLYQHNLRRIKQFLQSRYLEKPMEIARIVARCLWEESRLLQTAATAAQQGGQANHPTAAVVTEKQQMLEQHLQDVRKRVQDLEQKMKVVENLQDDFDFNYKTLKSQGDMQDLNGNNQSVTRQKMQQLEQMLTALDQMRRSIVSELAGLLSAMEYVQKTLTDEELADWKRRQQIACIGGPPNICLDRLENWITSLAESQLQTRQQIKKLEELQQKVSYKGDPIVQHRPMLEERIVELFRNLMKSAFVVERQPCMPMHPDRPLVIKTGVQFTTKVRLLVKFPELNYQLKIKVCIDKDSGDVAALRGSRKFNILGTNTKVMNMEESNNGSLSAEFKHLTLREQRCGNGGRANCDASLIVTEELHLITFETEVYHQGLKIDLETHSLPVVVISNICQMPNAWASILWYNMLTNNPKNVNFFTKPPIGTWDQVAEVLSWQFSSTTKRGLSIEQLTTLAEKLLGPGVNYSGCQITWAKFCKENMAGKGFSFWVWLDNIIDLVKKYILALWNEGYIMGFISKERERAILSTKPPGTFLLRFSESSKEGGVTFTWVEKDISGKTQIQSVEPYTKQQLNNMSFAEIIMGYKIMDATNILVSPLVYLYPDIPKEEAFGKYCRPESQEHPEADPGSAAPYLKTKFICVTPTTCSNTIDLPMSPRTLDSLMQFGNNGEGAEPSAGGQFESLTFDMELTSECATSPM
Chain of Nuclear factor NF-kappa-B complex (Homo sapiens) (P19838 whole entry, looked up): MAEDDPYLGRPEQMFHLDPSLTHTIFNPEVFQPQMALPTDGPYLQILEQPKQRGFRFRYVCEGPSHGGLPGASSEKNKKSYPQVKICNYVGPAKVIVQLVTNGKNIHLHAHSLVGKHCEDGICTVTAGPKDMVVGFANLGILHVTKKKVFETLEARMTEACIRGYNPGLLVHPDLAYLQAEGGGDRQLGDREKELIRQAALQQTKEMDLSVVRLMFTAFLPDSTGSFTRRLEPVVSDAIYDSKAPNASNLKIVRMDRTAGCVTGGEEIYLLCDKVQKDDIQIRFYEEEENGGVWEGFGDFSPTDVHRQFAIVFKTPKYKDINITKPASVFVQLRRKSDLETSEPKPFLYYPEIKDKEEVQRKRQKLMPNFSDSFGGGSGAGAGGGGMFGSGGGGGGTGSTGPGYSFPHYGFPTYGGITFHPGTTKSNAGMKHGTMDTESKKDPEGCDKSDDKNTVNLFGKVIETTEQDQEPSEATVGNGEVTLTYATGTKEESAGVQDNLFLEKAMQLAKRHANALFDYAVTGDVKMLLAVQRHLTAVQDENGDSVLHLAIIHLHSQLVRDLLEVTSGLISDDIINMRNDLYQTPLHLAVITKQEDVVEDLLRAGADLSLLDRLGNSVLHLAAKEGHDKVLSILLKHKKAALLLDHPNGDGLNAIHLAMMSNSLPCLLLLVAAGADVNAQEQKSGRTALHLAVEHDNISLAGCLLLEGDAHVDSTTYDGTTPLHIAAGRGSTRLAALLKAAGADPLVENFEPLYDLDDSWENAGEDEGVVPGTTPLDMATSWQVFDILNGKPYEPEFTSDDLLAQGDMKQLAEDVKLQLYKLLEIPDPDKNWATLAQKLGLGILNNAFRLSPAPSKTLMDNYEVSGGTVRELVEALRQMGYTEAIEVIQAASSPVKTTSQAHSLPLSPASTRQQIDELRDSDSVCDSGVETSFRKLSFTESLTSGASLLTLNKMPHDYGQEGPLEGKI
Chain of Nuclear factor NF-kappa-B complex (Homo sapiens) (Q00653 whole entry, looked up): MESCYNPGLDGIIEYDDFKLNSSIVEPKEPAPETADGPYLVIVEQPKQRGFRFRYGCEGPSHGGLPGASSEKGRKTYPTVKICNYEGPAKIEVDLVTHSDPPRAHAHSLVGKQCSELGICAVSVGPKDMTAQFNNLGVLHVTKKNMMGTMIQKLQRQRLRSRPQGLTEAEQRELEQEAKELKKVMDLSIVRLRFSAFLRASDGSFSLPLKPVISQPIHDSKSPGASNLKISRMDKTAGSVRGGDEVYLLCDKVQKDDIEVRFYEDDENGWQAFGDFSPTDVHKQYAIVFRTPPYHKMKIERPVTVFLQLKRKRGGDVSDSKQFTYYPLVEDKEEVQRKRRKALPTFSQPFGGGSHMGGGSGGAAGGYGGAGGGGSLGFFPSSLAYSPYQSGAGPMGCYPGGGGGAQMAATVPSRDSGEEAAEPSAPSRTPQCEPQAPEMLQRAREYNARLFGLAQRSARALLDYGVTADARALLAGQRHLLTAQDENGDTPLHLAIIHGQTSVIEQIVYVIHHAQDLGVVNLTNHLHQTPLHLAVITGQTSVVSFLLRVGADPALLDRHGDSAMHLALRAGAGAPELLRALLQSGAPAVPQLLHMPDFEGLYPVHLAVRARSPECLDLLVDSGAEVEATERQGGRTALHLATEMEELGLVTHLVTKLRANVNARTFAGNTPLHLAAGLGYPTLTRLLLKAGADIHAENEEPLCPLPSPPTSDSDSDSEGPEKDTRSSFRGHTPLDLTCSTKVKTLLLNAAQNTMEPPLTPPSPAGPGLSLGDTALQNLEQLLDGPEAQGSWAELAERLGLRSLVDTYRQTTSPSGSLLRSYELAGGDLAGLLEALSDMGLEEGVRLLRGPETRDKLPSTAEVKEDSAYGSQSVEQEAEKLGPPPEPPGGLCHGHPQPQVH
Chain of Nuclear factor NF-kappa-B complex (Homo sapiens) (Q04206 whole entry, looked up): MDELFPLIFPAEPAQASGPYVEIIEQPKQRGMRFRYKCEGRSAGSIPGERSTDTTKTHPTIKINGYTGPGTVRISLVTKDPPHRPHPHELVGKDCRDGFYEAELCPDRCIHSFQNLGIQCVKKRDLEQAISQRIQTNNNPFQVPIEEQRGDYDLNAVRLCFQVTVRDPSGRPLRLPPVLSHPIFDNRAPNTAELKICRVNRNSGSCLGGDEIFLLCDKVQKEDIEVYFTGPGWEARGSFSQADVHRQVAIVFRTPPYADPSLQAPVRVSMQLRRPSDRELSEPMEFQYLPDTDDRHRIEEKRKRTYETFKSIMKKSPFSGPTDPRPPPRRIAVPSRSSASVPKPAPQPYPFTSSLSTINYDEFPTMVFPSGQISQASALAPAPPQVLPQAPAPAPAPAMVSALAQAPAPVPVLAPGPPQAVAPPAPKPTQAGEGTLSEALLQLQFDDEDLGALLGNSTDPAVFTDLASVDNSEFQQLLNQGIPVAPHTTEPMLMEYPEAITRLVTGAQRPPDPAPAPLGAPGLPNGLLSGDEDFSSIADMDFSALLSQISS

Compound | Activity (HeLa) | inhibition ([6]; filed as antagonist) | inhibition [7] | inhibition [6] | also measured
C=C1CC[C@@H]2[C@](C)(COC(C)=O)[C@H](O)CC[C@@]2(C)[C@@H]1C/C=C(/COC(C)=O)[C@@H](COC(C)=O)O[Si](C)(C)C(C)(C)C | Non-Toxic | Active | inactive |  | Activity (SH-SY5Y [1]): Active; Activity (N2a [2]): Active; Activity (N2a [3]): Active; Activity (N2a [4]): Active; Activity [5]: Active; inhibition [8]: inactive; inhibition [9]: Active; Activity (N2a [10]): Active; Activity (N2a [11]): inactive; Activity (N2a [12]): inactive; Activity (N2a [13]): inactive; Activity (N2a [14]): inactive; Activity (N2a [15]): inactive; Activity (N2a [16]): Active; Activity (N2a [17]): Active; Activity (N2a [18]): inactive; Activity (SH-SY5Y [19]): Active
C=C1CC[C@@H]2[C@]3(C)COC(C)(C)O[C@@H]3CC[C@@]2(C)[C@@H]1C/C=C1/C(O)OC[C@H]1O[Si](C)(C)C(C)(C)C (stereo partly drawn) | Non-Toxic |  | inactive | inactive | inhibition [20]: inactive
C=C1CC[C@@H]2[C@]3(C)COC(C)(C)O[C@@H]3CC[C@@]2(C)[C@@H]1C/C=C1/C(O)OC[C@H]1O[Si](CC)(CC)CC (stereo partly drawn) | Non-Toxic | Active | inactive |  | Activity [5]: Active; inhibition ([8]; filed as antagonist): Active; inhibition [9]: Active
C=C1CC[C@@H]2[C@]3(C)COC(C)(C)O[C@@H]3CC[C@@]2(C)[C@@H]1C/C=C(/COC(C)=O)[C@@H](COC(C)=O)O[Si](C)(C)C(C)(C)C | Non-Toxic |  | inactive | inactive | 
C=C1CC[C@@H]2[C@](C)(CO)[C@H](O)CC[C@@]2(C)[C@@H]1C/C=C1/C(O)OC[C@H]1O[Si](C)(C)C(C)(C)C (stereo partly drawn) | Non-Toxic | Active | inactive |  | 
C=C1CC[C@@H]2[C@]3(C)COC(C)(C)O[C@@H]3CC[C@@]2(C)[C@@H]1C/C=C1/C(=O)OC[C@H]1O[Si](CC)(CC)CC | Non-Toxic |  | inactive | inactive | Activity [21]: Active
C=C1CC[C@@H]2[C@](C)(COC(C)=O)[C@H](OC(C)=O)CC[C@@]2(C)[C@@H]1C/C=C(/COC(C)=O)[C@@H](COC(C)=O)O[Si](C)(C)C(C)(C)C | Non-Toxic |  | inactive | inactive | 
C=C1CC[C@@H]2[C@]3(C)COC(C)(C)O[C@@H]3CC[C@@]2(C)[C@@H]1C/C=C1/C(=O)OC[C@H]1O[Si](C)(C)C(C)(C)C | Non-Toxic |  | inactive | inactive | 
C=C1CC[C@@H]2[C@](C)(CO)[C@H](O)CC[C@@]2(C)[C@@H]1C/C=C1/C(O)OC[C@H]1O[Si](CC)(CC)CC (stereo partly drawn) | Non-Toxic |  | inactive | inactive | 
C=C1CC[C@@H]2[C@]3(C)COC(C)(C)O[C@@H]3CC[C@@]2(C)[C@@H]1C/C=C(/CO)[C@@H](CO)O[Si](CC)(CC)CC | Non-Toxic | Active | inactive |  | inhibition [20]: Active
CCC(=O)N1CCN(c2ccc(-n3c(=O)ccc4cnc5ccc(-c6cnc7ccccc7c6)cc5c43)cc2C(F)(F)F)CC1 |  |  |  |  | Activity (N2a [3]): Active; Activity (SH-SY5Y [22]): Active; Activity (N2a [23]): Active; Activity (N2a [24]): Active; Activity [25]: inactive; Activity [26]: Active; Activity [27]: inactive; inhibition (SH-SY5Y [28]): Active; inhibition (SH-SY5Y [29]): Active; Activity (SH-SY5Y [30]): Active
C=C1CC[C@@H]2[C@]3(C)COC(C)(C)O[C@@H]3CC[C@@]2(C)[C@@H]1C/C=C(/C=O)[C@@H](COC(C)=O)O[Si](C)(C)C(C)(C)C | Non-Toxic | Active | inactive |  | inhibition ([8]; filed as antagonist): Active; inhibition [9]: Active
C=C1CC[C@@H]2[C@]3(C)COC(C)(C)O[C@@H]3CC[C@@]2(C)[C@@H]1C/C=C(/CO)[C@@H](CO)O[Si](C)(C)C(C)(C)C | Non-Toxic |  | inactive | inactive | inhibition [20]: inactive
C=C1CC[C@@H]2[C@](C)(CO)[C@H](O)CC[C@@]2(C)[C@@H]1C/C=C(/COC(C)=O)[C@@H](COC(C)=O)O[Si](C)(C)C(C)(C)C | Non-Toxic | Active | inactive |  | Activity [5]: Active; inhibition ([8]; filed as antagonist): Active; Activity [31]: inactive
